*1 amine or outer side, *2 acyl side, *3 side chain or, on linkers, in order; H or OH if unused. Where a SMILES comes first, the peptide text is derived from it. [ ]: non-standard residue; d: D form. The star is where a group is joined. 4Abz = Nc1ccc(C(=O)O)cc1; CO = O=C([*:1])[*:2]; NHPh = c1ccc(N*)cc1

In the first assay the target is T1, Caspase-1 (Homo sapiens, UniProt P29466).
T1 sequence (P29466 120-297 limits assumed): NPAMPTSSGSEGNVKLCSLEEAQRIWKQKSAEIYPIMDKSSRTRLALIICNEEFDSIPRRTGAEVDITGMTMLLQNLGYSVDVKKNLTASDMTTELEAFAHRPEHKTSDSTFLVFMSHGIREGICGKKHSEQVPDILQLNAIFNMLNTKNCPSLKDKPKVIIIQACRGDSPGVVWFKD
T1 sequence (P29466 317-404 limits assumed): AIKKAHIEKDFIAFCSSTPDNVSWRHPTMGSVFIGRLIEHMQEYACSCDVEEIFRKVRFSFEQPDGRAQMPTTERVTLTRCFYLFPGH
Nature of the assay: Caspase-1 enzyme inhibition (Ki). It is filed as biochemical.
Conditions: not given
The protocol:
Ki values for test compounds with the various caspases were obtained by the method of Margolin et al. (J. Biol. Chem., 272 pp. 7223-7228 (1997)). Assays were performed in 10 mM Tris (Sigma Corp, St Louis Mo.) pH 7.5, 1 mM Dithiothreitol (DTT, Research Organic INC, Cleveland, Ohio) and 0.1% CHAPS (Pierce, Rockford Ill.) at 37° C. For caspase-3, a solution of 8% glycerol was added to the assay buffer to improve enzyme stability. A 65 μL aliquot of the assay buffer and 5 μL aliquot of the appropriate dilutions of inhibitor in DMSO where pipetted into a 96 well plate, treated with 10 μL of caspase, then diluted in assay buffer (0.5-40 nM active protein by active site titration). A control containing DMSO but no compound was included for each determination. The plates were then incubated for 15 minutes at 37° C., before addition of the appropriate substrate (20 μL, final concentration 1-4×KM, final assay volume 100 μL) to initiate the reaction. Reaction rates were measured at 37° C. either by following the time dependant increase in absorbance at 405 nm (for the pNA substrates) or in fluorescence (Ex 390, Em 460) (for the AMC substrates). The rates obtained were plotted against inhibitor concentration and the data fit to the Morrison tight-binding equation for competitive inhibitors (Morrison, J. F., Biochem. Biophys. Acta, 185 pp. 269-286 (1969)). The substrates used for the individual assays were as follows:
Caspase-1 Suc-YVAD-pNA (Bachem, King of Prussia, Pa.) (final concentration in the assay 80 μM),
By Ki is commonly meant the dissociation constant of the complex between target and ligand, obtained from inhibition or displacement. Compound `CC(C)[C@H](NC(=O)C1(c2ccccc2)CCCC1)C(=O)N1CCC[C@H]1C(=O)N[C@H](C=O)CC(=O)O` [Example 5t] returned a Ki of over 1000 nM.
The same measure, in the same setting: to `COc1ccc(CCC(=O)N[C@H](C(=O)N2CCC[C@H]2C(=O)N[C@H](C=O)CC(=O)O)C(C)C)cc1OC` [Example 5o] belongs 10 to 1000 nM; to `CC(C)[C@H](NC(=O)C(c1ccc(Cl)cc1)c1ccc(Cl)cc1)C(=O)N1CCC[C@H]1C(=O)N[C@H](C=O)CC(=O)O` [Example 5p], 10 to 1000 nM; to `Cc1onc(-c2c(F)cccc2Cl)c1C(=O)N[C@H](C(=O)N1CCC[C@H]1C(=O)N[C@H](C=O)CC(=O)O)C(C)C` [Example 5ae], 10 to 1000 nM.
As for `CC(=O)N[C@H](Cc1c[nH]c2ccccc12)C(=O)N[C@H](C(=O)N1CCC[C@H]1C(=O)N[C@H](C=O)CC(=O)O)C(C)C` [Example 5ah] (Ac-[dW]VPD-aldehyde), the inhibitory constant (Ki) fell in the range of 10 to 1000 nM.
Same read-out and setting: under `CC(C)[C@H](NC(=O)C(c1ccccc1)c1ccccc1)C(=O)N1CCC[C@H]1C(=O)N[C@H](C=O)CC(=O)O` [Example 5q] stands 10 to 1000 nM.

The same assay, now with this note: substrate Suc-YVAD-pNA 80 μM, 37° C., pH 7.5.
As to `C[C@H](NC(=O)c1ccc(NC(=O)Cc2ccccc2)c(Cl)c1)C(=O)N1CCC[C@H]1C(=O)N[C@H](C=O)CC(=O)O` [Example 122u, 3-({1-[2-(3-Chloro-4-phenylacetylamino-benzoylamino)-propionyl]-pyrrolidine-2-carbonyl}-amino)-4-oxo-butyric acid], the inhibition constant (Ki) is under 10 nM.
Still for that read-out and setting: under `Cc1cc(C(=O)N[C@@H](C)C(=O)N2CC(F)(F)C[C@H]2C(=O)N[C@H](C=O)CC(=O)O)cc(C)c1O` [Example 27j] stands 10 to 1000 nM; under `CC(C)[C@H](NC(=O)C1(c2ccccc2)CCCC1)C(=O)N1CCC[C@H]1C(=O)N[C@H](C=O)CC(=O)O` [Example 5t], over 1000 nM; under `COc1ccc(CCC(=O)N[C@H](C(=O)N2CCC[C@H]2C(=O)N[C@H](C=O)CC(=O)O)C(C)C)cc1OC` [Example 5o], 10 to 1000 nM.
Same read-out and setting: to `CC(C)[C@H](NC(=O)c1cccc2ccccc12)C(=O)N[C@@H](C)C(=O)N[C@H](C=O)CC(=O)O` [Example 29f] belongs under 10 nM.
Still for that read-out and setting: under `C[C@H](NC(=O)c1ccc(F)c(F)c1)C(=O)N1CCC[C@H]1C(=O)N[C@H](C=O)CC(=O)O` [Example 7al] stands 10 to 1000 nM.
Regarding `Cc1cc(C(=O)N[C@@H]2CCN([C@@H](CC(C)C)C(=O)N[C@H](C=O)CC(=O)O)C2=O)cc(C)c1O` [Example 32b], the Ki was over 1000 nM.
The same measure, in the same setting: to `C[C@H](NC(=O)c1ccc(N)c(Cl)c1)C(=O)N1CCC[C@@H]1C(=O)N[C@H](C=O)CC(=O)O` [Example 122o, 3-({1-[2-(4-Amino-3-chloro-benzoylamino)-propionyl]-pyrrolidine-2-carbonyl}-amino)-4-oxo-butyric acid] belongs over 1000 nM; to `CC(C)[C@H](NC(=O)c1ccc(N)c(Cl)c1)C(=O)N1CCN(C)C[C@H]1C(=O)N[C@H](C=O)CC(=O)O` [Example 17a], 10 to 1000 nM.
The compound `C[C@H](NS(=O)(=O)c1ccccc1)C(=O)N1CCC[C@H]1C(=O)N[C@H](C=O)CC(=O)O` [Example 7ae] showed an inhibitory constant (Ki) of 10 to 1000 nM.
Same read-out and setting: to `COc1c(C(=O)NC(C)C(=O)N2CC(F)(F)CC2C(=O)NC(C=O)CC(=O)O)ccc(NC(C)=O)c1Cl` (stereo not drawn) [Example 123c, 3-({1-[2-(4-Acetylamino-3-chloro-2-methoxy-benzoylamino)-propionyl]-4,4-difluoro-pyrrolidine-2-carbonyl)-amino)-4-oxo-butyric acid] belongs 10 to 1000 nM; to `CC(C)[C@H](NC(=O)c1c(-c2ccccc2)nnc2ccccc12)C(=O)N1CCC[C@H]1C(=O)N[C@H](C=O)CC(=O)O` [Example 5bc], 10 to 1000 nM; to `CC(Nc1ccccc1)C(=O)N1CCCC1C(=O)NC(C=O)CC(=O)O` (stereo not drawn) [Example 121, 4-Oxo-3-{[1-(2-phenylamino-propionyl)-pyrrolidine-2-carbonyl]-amino}-butyric acid], over 1000 nM.
Still for that read-out and setting: to `C[C@H](NC(=O)c1cc(F)c(N(C)C)c(F)c1)C(=O)N1CCC[C@H]1C(=O)N[C@H](C=O)CC(=O)O` [Example 122n, 3-({1-[2-(4-Dimethylamino-3,5-difluoro-benzoylamino)-propionyl]-pyrrolidine-2-carbonyl}-amino)-4-oxo-butyric acid] belongs 10 to 1000 nM.
`C[C@H](NC(=O)c1ccc(OC(F)(F)F)cc1)C(=O)N1CCC[C@H]1C(=O)N[C@H](C=O)CC(=O)O` [Example 7i] returned an inhibition constant Ki of 10 to 1000 nM.
`Cc1ccn2c(=O)c(C(=O)N[C@H](C(=O)N3CCC[C@H]3C(=O)N[C@H](C=O)CC(=O)O)C(C)C)cnc2c1` [Example 5ap] gave a Ki of 10 to 1000 nM.
On the same count and under the same terms, under `CC(C)[C@H](NC(=O)C(c1ccc(Cl)cc1)c1ccc(Cl)cc1)C(=O)N1CCC[C@H]1C(=O)N[C@H](C=O)CC(=O)O` [Example 5p] stands 10 to 1000 nM; under `CC(C)C[C@@H](C(=O)N[C@H](C=O)CC(=O)O)N1CC[C@@H](NC(=O)c2nccc3ccccc23)C1=O` [Example 32a], over 1000 nM.
The compound `CC(C)CC(=O)Nc1ccc(C(=O)N[C@@H](C)C(=O)N2CCC[C@H]2C(=O)N[C@H](C=O)CC(=O)O)cc1Cl` [Example 122v, 3-[(1-{2-[3-Chloro-4-(3-methyl-butyrylamino)-benzoylamino]-propionyl}-pyrrolidine-2-carbonyl}-amino]-4-oxo-butyric acid] yielded an inhibitory constant (Ki) of 10 to 1000 nM.
The same measure, in the same setting: to `C[C@H](NC(=O)Oc1ccccc1)C(=O)N1CCC[C@H]1C(=O)N[C@H](C=O)CC(=O)O` [Example 7ag] belongs 10 to 1000 nM; to `COc1ccc(C(=O)NC(C(=O)N2N=C(C(C)(C)C)SC2C(=O)NC(C=O)CC(=O)O)C(C)C)cc1` (single isomer, unassigned) [Example 46a, 3-({5-tert-butyl-3-[2-(4-methoxy-benzoylamino)-3-methyl-butyryl]-2,3-dihydro-[1,3,4]thiadiazole-2-carbonyl)-amino)-4-oxo-butyric acid], over 1000 nM; to `CC(=O)N(C)c1ccc(C(=O)N[C@@H](C)C(=O)N2CCC[C@H]2C(=O)N[C@H](C=O)CC(=O)O)cc1` [Example 7j], over 1000 nM.
The same measure, in the same setting: to `C[C@H](NC(=O)c1ccc(N)cc1)C(=O)N1CCC[C@H]1C(=O)N[C@H](C=O)CC(=O)O` [Example 7aq] (H-[4Abz]APD-aldehyde) belongs 10 to 1000 nM.
Compound `Cc1onc(-c2c(F)cccc2Cl)c1C(=O)N[C@H](C(=O)N1CCC[C@H]1C(=O)N[C@H](C=O)CC(=O)O)C(C)C` [Example 5ae] had an inhibitory constant (Ki) of 10 to 1000 nM.
`CC(C)[C@H](NC(=O)Cc1ccc(Cl)c(Cl)c1)C(=O)N1CCC[C@H]1C(=O)N[C@H](C=O)CC(=O)O` [Example 5an] yielded a Ki of 10 to 1000 nM.
Compound `CC(C)C[C@@H](C(=O)N[C@H](C=O)CC(=O)O)N1CC[C@@H](NC(=O)c2c(Cl)cccc2Cl)C1=O` [Example 32e] yielded an inhibitory constant (Ki) of 10 to 1000 nM.
The compound `C[C@H](NC(=O)Nc1ccccc1)C(=O)N1CCC[C@H]1C(=O)N[C@H](C=O)CC(=O)O` [Example 7af] ({NHPh-CO}-Ala-Pro-Asp-aldehyde) displayed a Ki of 10 to 1000 nM.
On the same count and under the same terms, under `CN(NC(=O)N1CCCC1C(=O)NC(C=O)CC(=O)O)C(=O)c1nccc2ccccc12` (stereo not drawn) [Example 34, 3-({1-[N-(isoquinoline-1-carbonyl)-N-methyl-hydrazinocarbonyl]-pyrrolidine-2-carbonyl}-amino)-4-oxo-butyric acid] stands over 1000 nM; under `Cc1nc(C)c(C(=O)N[C@@H](C)C(=O)N2CCC[C@H]2C(=O)N[C@H](C=O)CC(=O)O)s1` [Example 7r], 10 to 1000 nM.
Same read-out and setting: to `C[C@H](NC(=O)C(=O)c1ccccc1)C(=O)N1CC(F)(F)C[C@H]1C(=O)N[C@H](C=O)CC(=O)O` [Example 27c] belongs 10 to 1000 nM; to `Nc1ccc(C(=O)NCC(=O)N2CCC[C@H]2C(=O)N[C@H](C=O)CC(=O)O)cc1Cl` [Example G1, 3-({1-[(4-Amino-3-chloro-benzoylamino)-acetyl]-pyrrolidine-2-carbonyl}-amino)-4-oxo-butyric acid], over 1000 nM; to `CC(=O)N[C@H](Cc1c[nH]c2ccccc12)C(=O)N[C@H](C(=O)N1CCC[C@H]1C(=O)N[C@H](C=O)CC(=O)O)C(C)C` [Example 5ah] (Ac-[dW]VPD-aldehyde), 10 to 1000 nM.
Take `CC(C)C[C@@H](C(=O)N[C@H](C=O)CC(=O)O)N1CC[C@@H](NC(=O)c2ccc3[nH]nnc3c2)C1=O` [Example 32c]: the inhibition constant (Ki) is over 1000 nM.
`CC(=O)Nc1c(Cl)cc(C(=O)N[C@@H](C)C(=O)N2CC(F)(F)C[C@H]2C(=O)N[C@H](C=O)CC(=O)O)cc1Cl` [Example 27k] gave an inhibition constant (Ki) of 10 to 1000 nM.
On to `CCC(=O)Nc1ccc(C(=O)N[C@@H](C)C(=O)N2CCC[C@H]2C(=O)N[C@H](C=O)CC(=O)O)cc1Cl` [Example 122t, 3-({1-[2-(3-Chloro-4-propionylamino-benzoylamino)-propionyl]-pyrrolidine-2-carbonyl}-amino)-4-oxo-butyric acid], for which the Ki was 10 to 1000 nM.
Still for that read-out and setting: to `CC(C)[C@H](NC(=O)C(c1ccccc1)c1ccccc1)C(=O)N1CCC[C@H]1C(=O)N[C@H](C=O)CC(=O)O` [Example 5q] belongs 10 to 1000 nM.

The values are drawn from patent publication US20030232986A1, “Inhibitors of caspases” (Vertex Pharmaceuticals Incorporated, priority 1998, published 2003).
